Literature values as cited in patent publication US4340609A, “Amidinourea derivative veterinary compositions for suppression of parasitemia” (William H. Rorer, Inc., priority 1980, dated 1982).

Details: triazine form/metabolite, cited from earlier work; for usefulness in therapy: malaria

Compound	excretion from the body	usefulness in therapy
[H]/N=C(\N/C(=N/[H])Nc1ccc(Cl)cc1)NC(C)C [chloroguanide]	rapidly excreted from the body when in its triazine form	little or no usefulness
CC1(C)N=C(N)N=C(N)N1c1ccc(Cl)cc1 [triazine metabolite of chloroquanide]	rapid excretion from the body	little or no usefulness in the therapy of humans and monkeys
